Broadly, the EC50 is the concentration that produces a half-maximal response. A high value points to weaker potency.

Each structure is given as a SMILES string.

The assay deals with T1, EDG-1/S1P1 receptor (Homo sapiens, UniProt P21453).
T1 construct: expressed in transfected cells; host or cells: U2OS (human osteosarcoma), EDG-1 Transfluor U20S WT Clone #37
Briefly: In Vitro Cell Based Receptor Activation Assay-Transfluor Assay. To be noted: inhibition of S1P-stimulated (375 nM or 750 nM) beta-arrestin GFP relocalization; EDG-1 Transfluor U20S WT Clone #37 cells. From the text:
The following assay can be used to measure the effects of the compounds of the present invention as S1P1/Edg1 inhibitors.
This cell-based assay was designed to assess the ability of small molecule antagonists to inhibit activation of the GPCR S1P1 in the presence of its cognate ligand S1P. The assay used technology initially developed by Norak Biosciences (Xsira Pharmaceutical) and presently owned by Molecular Devices. A human osteogenic sarcoma (U20S) cell line overexpressing the EDG-1/S1P1) receptor as well as a beta-arrestin/green fluorescent protein (GFP) construct hereafter termed EDG-1 Transfluor U20S WT Clone #37 was employed.
Using a high content screening approach (Cellomics Arrayscan), receptor activity was measured by assessment of the relocalization of beta-arrestin GFP in response to stimulation of EDG-1 by SIP. Specifically, EDG-1 Transfluor U20S WT Clone #37 cells were plated at a density of 6250 cells in 40 μL medium per well in 384 well plastic bottomed microtiter plates (BD Falcon) and incubated overnight at 37° C./5% CO2. Prior to screening, compounds were dissolved in 100% dimethyl sulfoxide (DMSO) to a final stock concentration of 10 mM. […] Plates were then sealed and analysed on the Cellomics Arrayscan using the GPCR signalling algorithm. EC50 values were then calculated using IDBS ActivityBase software.

In the case of `CCn1c(C(C)NS(=O)(=O)c2ccc(Cl)cc2)nnc1C(F)(F)F` (centres unmarked) [Example 11, 4-Chloro-N-[1-(4-ethyl-5-trifluoromethyl-4H-[1,2,4]triazol-3-yl)-ethyl]-benzenesulfonamide], the half-maximal effective concentration (EC50) is 670 nM.

Compound `CCn1c(OC)nnc1[C@@H](Cc1cccnc1)NS(=O)(=O)c1ccc(Cl)cc1` [Example 16, 4-Chloro-N-[(R)-1-(4-ethyl-5-methoxy-4H-[1,2,4]triazol-3-yl)-2-pyridin-3-yl-ethyl]benzenesulfonamide] showed an EC50 of 133 nM. Against the preceding compound, the EC50 is about 5-fold lower.
